In ChEMBL document CHEMBL5325419, “Design, synthesis and biological evaluation of novel thiosemicarbazones as cruzipain inhibitors” (Eur J Med Chem, 2023):
Where “and” joins values, the source holds several entries; their conditions need not be identical. Equal values may be shown once. Calls of active or inactive are those of the source. The rule behind the calls is not given here.

How the values were obtained:
Cruzipain [1] = target: T1, Cruzipain (Trypanosoma cruzi, UniProt P25779); assay: Inhibition of recombinant Trypanosoma cruzi Cruzipain using Z-FR-AMC as substrate preincubated for 20 mins followed by substrate addition and measured for 45 mins by fluorescence analysis
[2] = target: Cruzipain (Trypanosoma cruzi) (UniProt P25779); assay: Time dependent inhibition of recombinant Trypanosoma cruzi Cruzipain using Z-FR-AMC as substrate at 1000 nM preincubated for 60 mins followed by substrate addition and measured for 45 to 60 mins by fluorescence analysis; settings: time 105-120 min, TDE = time-dependent effect
[3] = target: Cruzipain (Trypanosoma cruzi) (UniProt P25779); assay: Inhibition of recombinant Trypanosoma cruzi Cruzipain using Z-FR-AMC as substrate at 125 to 1000 nM by fluorescence analysis; settings: dose 125-1000 nM
[4] = target: Cruzipain (Trypanosoma cruzi) (UniProt P25779); assay: Reversible inhibition of recombinant Trypanosoma cruzi Cruzipain using Z-LR-AMC as substrate at 10 uM preincubated for 60 mins followed by substrate addition and measured for 45 to 60 mins by fluorescence analysis; settings: time 105-120 min
[5] = target: Cruzipain (Trypanosoma cruzi) (UniProt P25779); assay: Time dependent inhibition of recombinant Trypanosoma cruzi Cruzipain using Z-FR-AMC as substrate at 125 nM preincubated for 60 mins followed by substrate addition and measured for 45 to 60 mins by fluorescence analysis; settings: time 105-120 min, TDE = time-dependent effect
[6] = target: Cruzipain (Trypanosoma cruzi) (UniProt P25779); assay: Reversible inhibition of recombinant Trypanosoma cruzi Cruzipain using Z-LR-AMC as substrate at 1 uM preincubated for 60 mins followed by substrate addition and measured for 45 to 60 mins by fluorescence analysis; settings: time 105-120 min
Cruzipain [7] = target: T1, Cruzipain; assay: Inhibition of recombinant Trypanosoma cruzi Cruzipain using Z-Phe-Arg-AMC as substrate preincubated for 5 mins followed by substrate addition by spectrofluorometry analysis
[8] = target: Cruzipain (Trypanosoma cruzi) (UniProt P25779); assay: Reversible inhibition of recombinant Trypanosoma cruzi Cruzipain using Z-LR-AMC as substrate at 25 uM preincubated for 60 mins followed by substrate addition and measured for 45 to 60 mins by fluorescence analysis; settings: time 105-120 min

T1 sequence (P25779 whole entry): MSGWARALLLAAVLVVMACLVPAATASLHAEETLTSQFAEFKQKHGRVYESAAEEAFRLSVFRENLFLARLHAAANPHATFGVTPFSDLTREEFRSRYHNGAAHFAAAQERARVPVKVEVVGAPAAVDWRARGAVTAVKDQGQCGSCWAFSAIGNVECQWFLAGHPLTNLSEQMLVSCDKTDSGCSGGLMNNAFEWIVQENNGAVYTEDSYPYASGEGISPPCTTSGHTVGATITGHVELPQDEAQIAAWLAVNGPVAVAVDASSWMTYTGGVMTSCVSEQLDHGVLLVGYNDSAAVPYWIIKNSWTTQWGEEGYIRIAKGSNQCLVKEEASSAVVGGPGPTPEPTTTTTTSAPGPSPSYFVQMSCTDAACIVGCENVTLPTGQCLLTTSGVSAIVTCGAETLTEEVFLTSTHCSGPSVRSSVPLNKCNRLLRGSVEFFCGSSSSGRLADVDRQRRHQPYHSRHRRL
Cruzipain (Trypanosoma cruzi), sequence (P25779 123-467 limits assumed): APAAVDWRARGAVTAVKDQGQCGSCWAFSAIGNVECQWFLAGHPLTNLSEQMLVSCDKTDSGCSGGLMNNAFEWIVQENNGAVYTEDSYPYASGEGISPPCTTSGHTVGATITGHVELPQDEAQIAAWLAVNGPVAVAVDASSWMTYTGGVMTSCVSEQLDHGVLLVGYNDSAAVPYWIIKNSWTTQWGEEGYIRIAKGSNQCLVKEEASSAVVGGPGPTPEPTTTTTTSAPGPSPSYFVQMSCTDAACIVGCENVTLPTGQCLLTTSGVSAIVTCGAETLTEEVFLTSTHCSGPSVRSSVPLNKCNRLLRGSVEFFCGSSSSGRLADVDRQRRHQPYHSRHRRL

| Structure (SMILES) | IC50 (Cruzipain [1]; read-out: IC50) | inhibition [2] | inhibition [3] | inhibition [5] | IC50 (Cruzipain [7]) [nM] | other results |
| --- | --- | --- | --- | --- | --- | --- |
| NC(=S)N/N=C(\CCN1CCCCC1)c1ccc(Cl)c(Cl)c1 | 2.86 nM and 8.54 nM | Tde | Dose-Dependent Effect | Tde | – | inhibition [4]: Active |
| NC(=S)N/N=C(\CCN1CCOCC1)c1ccc(Cl)c(Cl)c1 | 3.34 nM and 8.48 nM | Tde | Dose-Dependent Effect | Tde | – | inhibition [6]: Active |
| C/C(=N\N=C(\N)S)c1cccc(Br)c1 | – | – | – | – | 110 | – |
| NC(=S)N/N=C(\CCn1ccnc1)c1ccc(Cl)c(Cl)c1 | – | Tde | Dose-Dependent Effect | Tde | – | inhibition [8]: Active |
| CC/C(=N\N=C(\N)S)c1ccc(Cl)c(Cl)c1 | – | – | – | – | 24.5 | – |
| N/C(S)=N/N=C/c1cccc(Br)c1 | – | – | – | – | – | IC50 (Cruzipain [1]; read-out: pIC50 (converted)): 1360 nM |
